Publication PMC11944515, “Host-Mediated Antimicrobial Effects and NLRP3 Inflammasome Modulation by Caulerpin and Its Derivatives in Macrophage Models of Mycobacterial Infections” (Microorganisms, 2025)

Legend:
RAW 264.7 cells = test: Direct effects on RAW 264.7 cell viability (MTT); format: cell-based, murine
Protocol: The direct effects of CP and its analogues on RAW 264.7 viability were evaluated using the MTT method. RAW 264.7 cells were seeded at 1 × 10^4 cells/well (for 24 h incubation) and 5 × 10^3 cells/well (for 48 h incubation) and incubated overnight to allow adhesion. The culture medium was carefully aspirated and replaced with 100 μL DMEM plus 100 μL of test compound solutions, yielding final concentrations ranging from 3.25 to 30 µM (DMSO 1%, v/v). After 24 or 48 h of exposure to test compounds, cells were incubated with MTT (0.5 mg/mL) for 3 h. The resulting formazan crystals were dried, dissolved in DMSO, and absorbance was measured at 570 nm using a microplate reader (EL800, BioTek, Winooski, VT, USA). The precipitated purple formazan crystals were directly proportional to the number of metabolically active viable cells. The cell viability was then calculated as: Cell viability (%) = (Sample absorbance/Control absorbance) × 100. Data were expressed as mean of cell viability ± standard error of the mean from three to four independent experiments performed in triplicate.

[1] = system: Mycobacterium smegmatis mc2155; test: M. smegmatis susceptibility by CFU enumeration; format: cell-based
[2] = system: M. smegmatis within RAW 264.7 macrophages; test: Therapeutic potential in M. smegmatis-infected RAW 264.7 cells (CFU); format: cell-based, Mycobacterium smegmatis; settings: 15, 7.5 and 3.25 µM, 24 h
Protocol: For the first in vitro infection test with M. smegmatis, RAW 264.7 were seeded in 96-well culture plates at a density of 1 × 10^4 cells/well in DMEM medium (with 10% FBS, without antibiotics) and incubated overnight at 37 °C with 5% CO2 [20]. Infection of RAW 264.7 cells with M. smegmatis mc^2155 was performed at a multiplicity of infection of 1:1 for 2 h at 37 °C with 5% CO2. The medium with non-internalized bacteria was removed, and infected cells were then treated with the tested substances in DMEM: CP (15 µM, 7.5 µM and 3.25 µM), CA (30 µM, 15 µM, 7.5 µM and 3.25 µM), DE (15 µM, 7.5 µM and 3.25 µM), and DP (15 µM, 7.5 µM and 3.25 µM). Macrophages were lysed after 24 h with 0.1% Triton–X100, and these suspensions were diluted and plated on LB. CFU was determined after incubation of plates for 3 days at 37 °C. CFU numbers were expressed as log (CFU/well).

M. tuberculosis H37Ra = test: M. tuberculosis susceptibility by CFU enumeration; format: cell-based, Mycobacterium tuberculosis; settings: 0.03 μM, 48 h of treatment, positive control
Protocol: Next, CP, CA, and DE were diluted in Middlebrook 7H9 plus 10% OADC for the cellular susceptibility assay with M. tuberculosis H37Ra to yield concentrations up to 15 µM, 30 µM, and 15 µM, respectively. RIF at 0.03 µM was used as a positive control. The final DMSO concentration in all wells was 2.5%. The M. tuberculosis suspension was diluted in 7H9 plus 10% OADC to achieve an optical density of 0.006 at 595 nm, and 100 μL was then added to each well. Plates were covered, sealed with parafilm, and incubated at 37 °C for 48 h. After incubation, aliquots were removed, diluted, and plated in Middlebrook 7H10 agar plus 10% OADC. Plates were incubated at 37 °C for 4 weeks, and CFU were counted. CFU numbers were expressed as log10(CFU/mL).

CCCOC(=O)/C1=C/c2c([nH]c3ccccc23)/C(C(=O)OCCC)=C\c2c1[nH]c1ccccc21 [DP, (6E,13E)-dipropyl 5,12-dihydrocycloocta[1,2-b:5,6-b′]diindole-6,13-dicarboxylate]
effect on RAW 264.7 cell viability (RAW 264.7 cells; 24 h incubation, 3.25 to 30 µM): did not affect viability at any of the concentrations tested | effect on RAW 264.7 cell viability (RAW 264.7 cells; 48 h incubation): did not affect cell viability at any concentration evaluated | reduction of M. smegmatis viability ([1]; 30 μM, 24 h incubation): 0.639 log10 CFU | effect on intracellular M. smegmatis growth in RAW 264.7 [2]: no inhibitory effect

CC(C)COC(=O)/C1=C/c2c([nH]c3ccccc23)/C(C(=O)OCC(C)C)=C\c2c1[nH]c1ccccc21 [Diisobutyl, (6E,13E)-diisobutyl 5,12-dihydrocycloocta[1,2-b:5,6-b′]diindole-6,13-dicarboxylate]
effect on RAW 264.7 cell viability (RAW 264.7 cells; 24 h incubation, 3.25 to 30 µM): affected cell viability at the three highest concentrations assessed

CO[C@H]1/C=C/O[C@@]2(C)Oc3c(C)c(O)c4c(O)c(c(/C=N/N5CCN(C)CC5)c(O)c4c3C2=O)NC(=O)/C(C)=C\C=C\[C@H](C)[C@H](O)[C@@H](C)[C@@H](O)[C@@H](C)[C@H](OC(C)=O)[C@@H]1C [RIF, Rifampicin, reference compound]
reduction of M. smegmatis CFU count ([1]; 31 μM, 24 h of incubation, positive control): 3.41 log10 | reduction of M. tuberculosis bacterial burden (M. tuberculosis H37Ra): 0.362 log10 CFU/mL

CCCCCOC(=O)/C1=C/c2c([nH]c3ccccc23)/C(C(=O)OCCCCC)=C\c2c1[nH]c1ccccc21 [diamyl, (6E,13E)-dipentyl 5,12-dihydrocycloocta[1,2-b:5,6-b′]diindole-6,13-dicarboxylate]
effect on RAW 264.7 cell viability (RAW 264.7 cells; 24 h incubation, 3.25 to 30 µM): affected cell viability at all concentrations assessed
